Measured values: publication PMC10794144, “A novel antibiotic class targeting the lipopolysaccharide transporter” (Nature, 2024)
Converted amounts (≈) assume the structure as drawn. Where two headings read alike, the source gives them in different places.

Tests used:
S. aureus ATCC 29213 = test: organism not typed
Protocol: MIC determinations were performed using the broth microdilution method and in line with CLSI guidelines M07 and M100 (refs. [37],[38]). Bacterial inocula were prepared by diluting a 0.5 McFarland suspension in CAMHB or lysogeny broth (LB) specifically for A. baylyi isolates. […] MIC values of all of the tested antibiotics were read as the lowest compound concentration inhibiting bacterial growth by naked eye or beyond which the OD600 ceased to decrease.

Acetylcholinesterase = target: T1, Acetylcholinesterase (Homo sapiens, UniProt P22303); test: Off-target screening (CEREP); assay type: biochemical; details: read-out: percent inhibition
T1 construct: purchased Eurofins CEREP SA
Protocol: (§1) Supplementary Table 1 │ Off-target activity screening f or MCP compou nds […]
(§2) The assays given in the table above were conducted at Eurofins CEREP S A (Celle-Lévescault, France) and were run as single point measurements in duplicates in the presence of 10 µ M of the test compound and reported as percent inhibition of the radioligand signal or control enzymatic activity. n.d., not

[1] = target: T2, Angiotensin converting enzyme (Homo sapiens, UniProt P12821); test: Off-target screening (CEREP); assay type: biochemical; details: read-out: percent inhibition
T2 construct: purchased Eurofins CEREP SA
Protocol: as §1, §2

CDK2 = target: T3, CDK2 (Homo sapiens, UniProt P24941); test: Off-target screening (CEREP); assay type: biochemical; details: read-out: percent inhibition
T3 construct: purchased Eurofins CEREP SA
Protocol: as §1, §2

Cyclooxygenase 2 = target: T4, Cyclooxygenase 2 (Homo sapiens, UniProt P35354); test: Off-target screening (CEREP); assay type: biochemical; details: read-out: percent inhibition
T4 construct: purchased Eurofins CEREP SA
T4 sequence (P35354 18-604): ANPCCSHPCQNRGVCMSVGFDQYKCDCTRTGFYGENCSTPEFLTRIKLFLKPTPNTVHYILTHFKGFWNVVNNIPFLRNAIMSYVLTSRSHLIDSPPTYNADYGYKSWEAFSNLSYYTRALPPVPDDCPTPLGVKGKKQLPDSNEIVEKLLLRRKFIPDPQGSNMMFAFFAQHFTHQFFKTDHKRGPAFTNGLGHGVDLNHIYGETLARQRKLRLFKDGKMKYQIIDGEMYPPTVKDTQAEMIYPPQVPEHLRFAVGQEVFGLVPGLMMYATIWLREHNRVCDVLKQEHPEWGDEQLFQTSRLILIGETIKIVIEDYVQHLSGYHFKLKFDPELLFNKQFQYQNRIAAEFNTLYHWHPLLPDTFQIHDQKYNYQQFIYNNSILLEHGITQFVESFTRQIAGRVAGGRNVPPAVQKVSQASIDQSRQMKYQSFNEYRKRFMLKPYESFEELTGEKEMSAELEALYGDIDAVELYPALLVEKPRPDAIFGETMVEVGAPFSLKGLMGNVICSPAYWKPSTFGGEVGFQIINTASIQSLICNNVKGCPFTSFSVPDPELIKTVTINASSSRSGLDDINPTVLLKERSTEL
Protocol: as §1, §2

GSK-3A = target: T5, GSK-3A (Homo sapiens, UniProt P49840); test: Off-target screening (CEREP); assay type: biochemical; details: read-out: percent inhibition
T5 construct: purchased Eurofins CEREP SA
Protocol: as §1, §2

Matrix metalloprotease-9 = target: T6, Matrix metalloprotease-9 (Homo sapiens, UniProt P14780); test: Off-target screening (CEREP); assay type: biochemical; details: read-out: percent inhibition
T6 construct: purchased Eurofins CEREP SA
Protocol: as §1, §2

Monoamine oxidase-A = target: T7, Monoamine oxidase-A (Homo sapiens, UniProt P21397); test: Off-target screening (CEREP); assay type: biochemical; details: read-out: percent inhibition
T7 construct: purchased Eurofins CEREP SA
T7 sequence (P21397 1-527): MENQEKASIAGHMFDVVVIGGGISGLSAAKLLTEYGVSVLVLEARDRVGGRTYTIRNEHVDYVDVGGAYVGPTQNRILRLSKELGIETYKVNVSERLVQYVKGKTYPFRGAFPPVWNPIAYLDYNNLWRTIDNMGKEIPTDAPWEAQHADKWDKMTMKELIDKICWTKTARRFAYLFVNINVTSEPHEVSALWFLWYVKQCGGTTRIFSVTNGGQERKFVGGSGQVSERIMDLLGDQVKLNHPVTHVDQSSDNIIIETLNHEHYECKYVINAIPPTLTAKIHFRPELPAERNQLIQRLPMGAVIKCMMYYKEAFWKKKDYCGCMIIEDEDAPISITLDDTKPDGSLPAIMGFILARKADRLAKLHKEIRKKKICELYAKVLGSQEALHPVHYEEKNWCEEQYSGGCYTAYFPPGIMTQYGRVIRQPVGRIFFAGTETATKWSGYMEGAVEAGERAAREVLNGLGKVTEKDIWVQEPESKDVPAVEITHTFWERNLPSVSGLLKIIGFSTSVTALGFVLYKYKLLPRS
Protocol: as §1, §2

Phosphodiesterase 3B = target: T8, Phosphodiesterase 3B (Homo sapiens, UniProt Q13370); test: Off-target screening (CEREP); assay type: biochemical; details: read-out: percent inhibition
T8 construct: purchased Eurofins CEREP SA
Protocol: as §1, §2

ZAP70 kinase = target: T9, ZAP70 kinase (Homo sapiens, UniProt P43403); test: Off-target screening (CEREP); assay type: biochemical; details: read-out: percent inhibition
T9 construct: purchased Eurofins CEREP SA
T9 sequence (P43403 1-619): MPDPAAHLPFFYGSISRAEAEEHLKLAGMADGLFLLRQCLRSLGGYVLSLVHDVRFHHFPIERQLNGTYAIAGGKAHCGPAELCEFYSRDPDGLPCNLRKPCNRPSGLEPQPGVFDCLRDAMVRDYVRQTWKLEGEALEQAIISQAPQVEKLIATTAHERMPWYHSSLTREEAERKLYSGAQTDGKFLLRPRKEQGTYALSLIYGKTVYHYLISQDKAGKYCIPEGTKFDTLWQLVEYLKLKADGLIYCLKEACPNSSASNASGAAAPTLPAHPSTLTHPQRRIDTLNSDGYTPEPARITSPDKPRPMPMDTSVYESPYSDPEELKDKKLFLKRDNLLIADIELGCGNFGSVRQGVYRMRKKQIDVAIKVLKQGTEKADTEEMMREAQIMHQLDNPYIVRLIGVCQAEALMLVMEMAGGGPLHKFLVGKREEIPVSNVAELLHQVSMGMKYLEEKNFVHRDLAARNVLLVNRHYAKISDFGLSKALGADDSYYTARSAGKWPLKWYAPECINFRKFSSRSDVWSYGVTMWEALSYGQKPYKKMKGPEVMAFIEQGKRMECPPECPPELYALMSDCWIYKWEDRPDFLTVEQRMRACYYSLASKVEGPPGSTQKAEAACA
Protocol: as §1, §2

Xanthine oxidase = target: T10, Xanthine oxidase (Bos taurus, UniProt P80457); test: Off-target screening (CEREP); assay type: biochemical, bovine; details: read-out: percent inhibition
T10 construct: purchased Eurofins CEREP SA
Protocol: as §1, §2

Abl kinase = target: T11, Abl kinase (Homo sapiens, UniProt P00519); test: Off-target screening (CEREP); assay type: biochemical; details: read-out: percent inhibition
T11 construct: purchased Eurofins CEREP SA
Protocol: as §1, §2

HIV-1 protease = test: Off-target screening (CEREP); assay type: biochemical; details: 10 µM, duplicates
Protocol: as §1, §2

Phosphodiesterase 4D2 = target: T12, Phosphodiesterase 4D2 (Homo sapiens, UniProt Q08499); test: Off-target screening (CEREP); assay type: biochemical; details: read-out: percent inhibition
T12 construct: purchased Eurofins CEREP SA
Protocol: as §1, §2

T6 sequence (P14780 94-707): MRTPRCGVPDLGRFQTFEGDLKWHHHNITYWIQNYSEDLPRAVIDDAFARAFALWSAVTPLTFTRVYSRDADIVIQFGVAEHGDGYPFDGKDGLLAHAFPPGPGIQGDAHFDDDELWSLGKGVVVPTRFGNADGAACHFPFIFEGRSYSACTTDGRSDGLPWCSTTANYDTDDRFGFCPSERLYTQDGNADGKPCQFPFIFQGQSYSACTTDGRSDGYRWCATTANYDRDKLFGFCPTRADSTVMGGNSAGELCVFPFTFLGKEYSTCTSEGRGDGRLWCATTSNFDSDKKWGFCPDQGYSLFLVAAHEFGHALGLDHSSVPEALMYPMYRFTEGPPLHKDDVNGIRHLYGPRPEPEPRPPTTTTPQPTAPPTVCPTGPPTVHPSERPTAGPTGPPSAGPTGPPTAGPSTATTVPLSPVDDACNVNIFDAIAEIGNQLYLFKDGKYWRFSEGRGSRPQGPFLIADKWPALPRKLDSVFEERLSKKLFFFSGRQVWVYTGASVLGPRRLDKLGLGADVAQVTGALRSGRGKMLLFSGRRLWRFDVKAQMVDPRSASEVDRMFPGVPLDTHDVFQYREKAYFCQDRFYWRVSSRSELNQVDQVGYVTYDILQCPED
T5 sequence (P49840 whole entry): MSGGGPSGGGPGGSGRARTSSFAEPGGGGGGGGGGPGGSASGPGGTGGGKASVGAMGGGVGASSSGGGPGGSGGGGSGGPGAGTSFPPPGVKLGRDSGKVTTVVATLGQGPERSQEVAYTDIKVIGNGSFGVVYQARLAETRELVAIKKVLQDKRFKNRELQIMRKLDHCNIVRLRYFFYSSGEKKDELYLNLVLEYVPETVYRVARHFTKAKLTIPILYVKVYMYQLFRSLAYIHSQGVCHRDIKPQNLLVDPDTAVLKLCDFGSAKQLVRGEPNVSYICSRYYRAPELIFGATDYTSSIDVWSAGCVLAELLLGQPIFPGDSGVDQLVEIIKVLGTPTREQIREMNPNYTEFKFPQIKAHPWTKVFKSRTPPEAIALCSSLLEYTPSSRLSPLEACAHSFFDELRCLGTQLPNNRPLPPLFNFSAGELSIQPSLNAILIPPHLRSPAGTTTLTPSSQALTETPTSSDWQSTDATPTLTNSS
T1 sequence (P22303 32-614): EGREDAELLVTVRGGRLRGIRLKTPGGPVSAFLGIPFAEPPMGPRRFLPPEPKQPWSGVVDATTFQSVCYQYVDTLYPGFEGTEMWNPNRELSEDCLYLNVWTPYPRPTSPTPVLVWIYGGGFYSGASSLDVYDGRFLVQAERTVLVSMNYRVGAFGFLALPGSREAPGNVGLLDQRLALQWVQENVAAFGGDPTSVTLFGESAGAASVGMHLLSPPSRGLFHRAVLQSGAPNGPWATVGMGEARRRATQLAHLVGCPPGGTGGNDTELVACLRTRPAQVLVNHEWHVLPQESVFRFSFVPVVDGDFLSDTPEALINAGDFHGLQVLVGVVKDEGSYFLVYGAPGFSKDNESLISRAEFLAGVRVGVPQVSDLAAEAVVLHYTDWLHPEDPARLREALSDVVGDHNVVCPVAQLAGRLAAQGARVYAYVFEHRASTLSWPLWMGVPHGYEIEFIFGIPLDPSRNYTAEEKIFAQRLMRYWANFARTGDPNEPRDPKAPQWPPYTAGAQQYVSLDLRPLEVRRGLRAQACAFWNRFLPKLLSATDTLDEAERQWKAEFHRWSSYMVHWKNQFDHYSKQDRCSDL
T2 sequence (P12821 30-1306): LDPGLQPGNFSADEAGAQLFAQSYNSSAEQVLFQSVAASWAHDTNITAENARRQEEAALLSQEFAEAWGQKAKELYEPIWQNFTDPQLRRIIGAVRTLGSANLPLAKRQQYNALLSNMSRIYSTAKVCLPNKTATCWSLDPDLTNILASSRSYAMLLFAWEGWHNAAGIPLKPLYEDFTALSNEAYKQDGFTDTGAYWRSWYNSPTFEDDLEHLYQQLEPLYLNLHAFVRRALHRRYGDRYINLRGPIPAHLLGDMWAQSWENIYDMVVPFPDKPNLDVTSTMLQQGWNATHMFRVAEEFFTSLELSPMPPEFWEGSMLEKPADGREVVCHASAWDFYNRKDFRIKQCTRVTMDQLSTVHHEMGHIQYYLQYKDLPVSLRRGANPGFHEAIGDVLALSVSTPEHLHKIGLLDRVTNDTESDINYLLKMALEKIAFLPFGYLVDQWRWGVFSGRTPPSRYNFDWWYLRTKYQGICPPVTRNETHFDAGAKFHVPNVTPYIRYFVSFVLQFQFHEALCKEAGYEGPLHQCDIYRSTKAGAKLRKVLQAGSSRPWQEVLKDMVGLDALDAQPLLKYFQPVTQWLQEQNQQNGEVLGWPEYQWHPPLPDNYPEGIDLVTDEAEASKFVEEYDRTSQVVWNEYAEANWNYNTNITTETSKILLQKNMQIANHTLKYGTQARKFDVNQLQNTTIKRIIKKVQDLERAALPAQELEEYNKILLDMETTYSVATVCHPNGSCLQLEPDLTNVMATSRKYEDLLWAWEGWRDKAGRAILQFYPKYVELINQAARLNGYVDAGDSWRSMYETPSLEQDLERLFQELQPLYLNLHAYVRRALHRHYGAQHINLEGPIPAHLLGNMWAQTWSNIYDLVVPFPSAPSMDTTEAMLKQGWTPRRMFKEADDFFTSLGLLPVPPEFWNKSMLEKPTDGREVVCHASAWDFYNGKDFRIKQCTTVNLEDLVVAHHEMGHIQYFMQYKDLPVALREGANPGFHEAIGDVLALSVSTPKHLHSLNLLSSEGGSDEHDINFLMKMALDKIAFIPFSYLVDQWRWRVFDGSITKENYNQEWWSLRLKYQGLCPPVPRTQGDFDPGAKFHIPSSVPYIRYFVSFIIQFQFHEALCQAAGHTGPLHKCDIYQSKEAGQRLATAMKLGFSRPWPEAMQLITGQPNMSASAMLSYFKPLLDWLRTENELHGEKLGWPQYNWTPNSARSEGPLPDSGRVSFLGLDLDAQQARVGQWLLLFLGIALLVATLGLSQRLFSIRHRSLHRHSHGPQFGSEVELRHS
T8 sequence (Q13370 whole entry): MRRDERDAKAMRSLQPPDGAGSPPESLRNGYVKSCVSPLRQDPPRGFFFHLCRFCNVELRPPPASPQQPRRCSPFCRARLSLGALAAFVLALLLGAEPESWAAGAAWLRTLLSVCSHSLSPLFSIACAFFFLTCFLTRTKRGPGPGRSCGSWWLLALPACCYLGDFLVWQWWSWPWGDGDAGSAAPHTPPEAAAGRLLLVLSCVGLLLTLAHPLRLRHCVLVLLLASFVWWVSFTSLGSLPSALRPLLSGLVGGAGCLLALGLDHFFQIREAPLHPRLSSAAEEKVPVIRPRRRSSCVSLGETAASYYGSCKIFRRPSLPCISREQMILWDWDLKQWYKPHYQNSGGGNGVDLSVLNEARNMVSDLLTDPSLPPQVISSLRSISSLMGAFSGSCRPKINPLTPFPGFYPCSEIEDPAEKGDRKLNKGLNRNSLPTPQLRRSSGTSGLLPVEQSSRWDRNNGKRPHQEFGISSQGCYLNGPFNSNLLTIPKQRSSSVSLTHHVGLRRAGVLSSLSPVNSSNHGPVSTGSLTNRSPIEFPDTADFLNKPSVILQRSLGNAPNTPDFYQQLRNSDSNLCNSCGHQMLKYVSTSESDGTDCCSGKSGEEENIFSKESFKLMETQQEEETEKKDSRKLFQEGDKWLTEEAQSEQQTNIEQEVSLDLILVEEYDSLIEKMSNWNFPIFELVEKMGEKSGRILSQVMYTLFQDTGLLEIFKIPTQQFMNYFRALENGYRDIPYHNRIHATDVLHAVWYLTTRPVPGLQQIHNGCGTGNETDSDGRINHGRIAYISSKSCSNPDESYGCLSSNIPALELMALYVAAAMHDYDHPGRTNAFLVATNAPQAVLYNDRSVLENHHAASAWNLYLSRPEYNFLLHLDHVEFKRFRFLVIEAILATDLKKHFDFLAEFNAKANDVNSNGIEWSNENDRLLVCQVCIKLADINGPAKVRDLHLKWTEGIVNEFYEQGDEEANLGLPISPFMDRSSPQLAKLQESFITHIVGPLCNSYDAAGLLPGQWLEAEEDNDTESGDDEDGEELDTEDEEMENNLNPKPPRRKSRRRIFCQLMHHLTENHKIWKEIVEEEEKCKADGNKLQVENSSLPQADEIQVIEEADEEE
T12 sequence (Q08499 303-809 limits assumed): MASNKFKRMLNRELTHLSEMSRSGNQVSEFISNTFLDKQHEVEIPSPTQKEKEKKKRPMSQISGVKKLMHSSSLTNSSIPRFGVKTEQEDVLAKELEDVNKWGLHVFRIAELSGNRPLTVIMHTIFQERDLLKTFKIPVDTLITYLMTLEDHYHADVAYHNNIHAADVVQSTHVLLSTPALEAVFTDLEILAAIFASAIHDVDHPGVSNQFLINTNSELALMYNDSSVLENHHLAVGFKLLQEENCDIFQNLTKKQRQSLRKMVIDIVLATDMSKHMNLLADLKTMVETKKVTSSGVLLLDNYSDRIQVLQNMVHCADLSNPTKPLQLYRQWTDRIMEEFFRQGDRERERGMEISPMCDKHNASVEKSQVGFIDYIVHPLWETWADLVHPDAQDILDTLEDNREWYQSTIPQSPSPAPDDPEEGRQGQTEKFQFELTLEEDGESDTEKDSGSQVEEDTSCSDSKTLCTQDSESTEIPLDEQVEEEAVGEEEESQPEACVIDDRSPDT

CN1C(=O)[C@H](CCCN)NC(=O)[C@H](CCCN)NCc2ccccc2Sc2ccccc2CNC(=O)[C@@H]1Cc1c[nH]c2ccccc12 [RO7036668]
MIC (S. aureus ATCC 29213; Gram-positive bacteria and yeast): 32 to 64 µg/mL (≈ 48.8 to 97.6 µM)
MIC (S. aureus ATCC 29213; Staphylococcus aureus, ATCC29213, CAMHB, mode of at least three replicates (RO7036668 one replicate)): 32 µg/mL (≈ 48.8 µM)
inhibition at 10 µM (Acetylcholinesterase; 10 µM, duplicates): 9%
inhibition at 10 µM ([1]; 10 µM, duplicates): -7%
inhibition at 10 µM (CDK2; 10 µM, duplicates): 9%
inhibition at 10 µM (Cyclooxygenase 2; 10 µM, duplicates): 4%
inhibition at 10 µM (GSK-3A; 10 µM, duplicates): -12%
inhibition at 10 µM (Matrix metalloprotease-9; 10 µM, duplicates): 6%
inhibition at 10 µM (Monoamine oxidase-A; 10 µM, duplicates): -2%
inhibition at 10 µM (Phosphodiesterase 3B; 10 µM, duplicates): 17%
inhibition at 10 µM (ZAP70 kinase; 10 µM, duplicates): 2%
inhibition at 10 µM (Xanthine oxidase; 10 µM, duplicates): -16%

CN1C(=O)[C@H](CCCCN)NC(=O)[C@H](CCCN)NCc2cccnc2Sc2c(Cl)ccc(Cl)c2CNC(=O)[C@@H]1Cc1c[nH]c2ccccc12 [RO7075573]
MIC (S. aureus ATCC 29213; Staphylococcus aureus, ATCC29213): > 64 µg/mL
MIC 100% (S. aureus ATCC 29213; Study LGC281440): >64 µg/mL
MIC 100% (S. aureus ATCC 29213; Study LGC282160): >64 µg/mL
MIC 100% (S. aureus ATCC 29213; Study LGC284879): >64 µg/mL
MIC 100% (S. aureus ATCC 29213; Study LGC285582): >64 µg/mL
MIC 100% (S. aureus ATCC 29213; Study LGC286210): 64 µg/mL (≈ 86.5 µM)
MIC 100% (S. aureus ATCC 29213; Study LGC293598): >64 µg/mL
MIC 100% (S. aureus ATCC 29213; Study LGC294355): >64 µg/mL
MIC 100% (S. aureus ATCC 29213; Study LGC295147): 64 µg/mL (≈ 86.5 µM)
MIC 100% (S. aureus ATCC 29213; Study LGC296813): >64 µg/mL
MIC 100% (S. aureus ATCC 29213; Study LGC299544): 64 µg/mL (≈ 86.5 µM)
MIC 100% (S. aureus ATCC 29213; Study LGC301026): >64 µg/mL
MIC 100% (S. aureus ATCC 29213; Study LGC308175): >64 µg/mL
MIC 100% (S. aureus ATCC 29213; Study ROC010): 32 µg/mL (≈ 43.3 µM)
MIC 100% (S. aureus ATCC 29213; Study ROC012): 32 µg/mL (≈ 43.3 µM)
inhibition at 10 µM (Abl kinase): -85%
inhibition at 10 µM (Acetylcholinesterase): 4%
inhibition at 10 µM [1]: -7%
inhibition at 10 µM (CDK2): -5%
inhibition at 10 µM (Cyclooxygenase 2): -46%
inhibition at 10 µM (GSK-3A): -1%
percent inhibition (HIV-1 protease): -4%
inhibition at 10 µM (Matrix metalloprotease-9): -31%
inhibition at 10 µM (Monoamine oxidase-A): 3%
inhibition at 10 µM (Phosphodiesterase 3B): -3%
inhibition at 10 µM (Phosphodiesterase 4D2): 0%
inhibition at 10 µM (ZAP70 kinase): -47%
inhibition at 10 µM (Xanthine oxidase): 6%
